Drawing on BindingDB's records for doi:10.1016/j.bmcl.2006.05.053 (Institute For Molecular Studies, 2006), this text covers IC50 for one compound.

In this assay the target is Mu-type opioid receptor (Rattus norvegicus, UniProt P33535). The experiment in a line: Displacement of [3H]DAMGO from mu opioid receptor in rat brain homogenate. For orientation: Displacement assays read how much labelled ligand stays bound in the presence of the test substance.

pIC50: −log10 of the molar value.

Chain of Mu-type opioid receptor (P33535 whole entry): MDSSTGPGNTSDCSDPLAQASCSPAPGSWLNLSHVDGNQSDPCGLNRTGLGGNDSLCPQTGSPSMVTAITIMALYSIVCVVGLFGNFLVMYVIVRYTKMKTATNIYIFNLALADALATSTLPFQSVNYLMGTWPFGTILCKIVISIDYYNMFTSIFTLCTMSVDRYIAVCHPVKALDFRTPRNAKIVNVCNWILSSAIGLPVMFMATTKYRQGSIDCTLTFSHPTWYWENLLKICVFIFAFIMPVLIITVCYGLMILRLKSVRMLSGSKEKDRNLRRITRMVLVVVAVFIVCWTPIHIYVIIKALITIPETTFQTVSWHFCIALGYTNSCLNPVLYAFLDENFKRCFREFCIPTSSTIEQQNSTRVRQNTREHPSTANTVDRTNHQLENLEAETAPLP

Usually pIC50 stands for −log10 of the IC50, conventionally taken in molar units. Lower therefore signals a large IC50. Turning to `CN[C@@H](Cc1ccc(O)cc1)CN(C)[C@H](CNCc1ccccc1)Cc1ccc(O)cc1` [4-[(2S)-3-{[(2S)-1-(benzylamino)-3-(4-hydroxyphenyl)propan-2-yl](methyl)amino}-2-(methylamino)propyl]phenol], the pIC50 is 8.70.
